Where two headings read alike, the source gives them in different places.
Assay: Effect of food on plasma pharmacokinetics after single oral dose of SF2a/b (Example 2)
Assay type: in vivo, human
Settings: both sexes, human, plasma, oral; for Tmax: read-out: tmax, Median
Protocol: The effect of food on the pharmacokinetics (PK) of Compound (a) was assessed in healthy participants after a single oral dose of SF2a/b, described in Example 1, administered at different dose levels in a randomized single dose, 2-period crossover study. The effect of food on the PK of Compound (a) was determined at 3 different dose levels (50 mg, 200 mg, and 800 mg) for a standardized breakfast; at one dose level (800 mg) for a high-fat, high-calorie breakfast; at two dose levels (200 mg and 800 mg) for a low-fat, low-calorie breakfast, as well as for a low-fat, high-calorie breakfast. 124 healthy adult participants (male and female, 18 to 55 years of age) were enrolled in this study. The volunteers were divided in six panels, which were organized as follows: • Panel […]: • Treatment D: A single 800-mg dose (4×200-mg tablets) of Compound (a) SF2b in fasted conditions. • Treatment E: A single 800-mg dose (4×200-mg tablets) of Compound (a) SF2b in fed conditions (standardized breakfast). • Treatments D and E (treatment sequence group 1 [n=8]: DE; treatment sequence group 2 [n=8]: ED). Panel 4, n=14: • Treatment F: A single 200-mg dose (1×200-mg tablet) of Compound (a) SF2b in fasted conditions. • Treatment G: A single 200-mg dose (1×200-mg tablet) of Compound (a) SF2b, in fed conditions (standardized breakfast). • Treatments F and G (treatment sequence group 1 [n=7]: FG; treatment sequence group 2 [n=7]: GF). Panel […]: • Treatment H: A single 50-mg dose (1×50-mg tablet) of Compound (a) SF2a in fasted conditions. • Treatment I: A single 50-mg dose (1×50-mg tablet) of Compound (a) SF2a in fed conditions (standardized breakfast). • Treatments H and I (treatment sequence group 1 [n=7]: HI; treatment sequence group 2 [n=7]: IH). Panel 6 (n=16): • Treatment J: single 800-mg dose (4×200-mg tablets) of Compound (a) administered as SF2b in fasted conditions. • Treatment K: single 800-mg dose (4×200-mg tablets) of Compound (a) administered as SF2b in fed conditions (high-fat, high-calorie breakfast). • Treatments J and K (treatment sequence group 1 [n=8]: JK; treatment sequence group 2 [n=8]: KJ). Panel 7 (n=32): • Treatment L: single 800-mg dose (4×200-mg tablets) of Compound (a) administered as SF2b in fed conditions (low-fat, low-calorie breakfast). • Treatment M: single 800-mg dose (4×200-mg tablets) of Compound (a) administered as SF2b in fed conditions (low-fat, high-calorie breakfast). • Treatment L (n=16) or Treatment M (n=16). Panel 8 (n=32): • Treatment N: single 200-mg dose (1×200-mg tablet) of Compound (a) administered as SF2b in fed conditions (low-fat, low-calorie breakfast). • Treatment O: single 200-mg dose (1×200-mg tablet) of Compound (a) administered as SF2b in fed conditions (low-fat, high-calorie breakfast). • Treatment N (n=16) or Treatment O (n=16). Tablets were administered orally, together with approximately 240 mL of non-carbonated water, in fasted or fed conditions. […] On day 1 of all treatments in each panel, the participants had fasted overnight for at least 10 hours before study drug intake. Intake of water was not allowed from 2 hours before and until 2 hours after study drug intake, except for the water used for study drug intake and breakfast. In case of intake in fed conditions, study drug was administered within 10 minutes after completing a standardized breakfast (Treatments E, G, and I), or a high-fat, high-calorie breakfast (Treatment K), a low-fat, low-calorie breakfast (Treatments L and N), or a low-fat, high-calorie breakfast (Treatments M and O). For treatments E, G, and I a standardized breakfast was served, consisting of (or its equivalent) 4 slices of bread, 2 slices of ham or cheese, butter, jelly, and 1 or 2 cups (up to 355 mL) of decaffeinated coffee or tea with milk and/or sugar, if desired (containing approximately: fat: 21 g, carbohydrates: 67 g, proteins: 19 g; total calories: 533 kcal). For treatment K in a high-fat, high-calorie breakfast was served. […]

SMILES: COc1cc(NC(C(=O)c2c[nH]c3ccc(OC(F)(F)F)cc23)c2ccc(Cl)cc2OC)cc(S(C)(=O)=O)c1 (stereo not drawn) [Compound (a)]
- AUC(0-inf) (200 mg, 200 mg SF2b, fed, standardized breakfast (Tables 5E, 5G), read-out: AUC∞, Geometric LS Means Treatment G): 103 µg·h/mL
- Cmax (200 mg, 200 mg SF2b, fed, standardized breakfast (Tables 5E, 5G), read-out: Cmax, Geometric LS Means Treatment G): 961 ng/mL
- AUC(0-t) (200 mg, 200 mg SF2b, standardized breakfast, linear mixed effects model (Table 5B), read-out: AUClast, Geometric Mean Treatment G): 102 µg·h/mL
- AUC(0-inf) (200 mg, 200 mg SF2b, standardized breakfast, linear mixed effects model (Table 5B), read-out: AUC∞, Geometric Mean Treatment G): 104 µg·h/mL
- Cmax (200 mg, 200 mg SF2b, standardized breakfast, linear mixed effects model (Table 5B), read-out: Cmax, Geometric Mean Treatment G): 984 ng/mL
- AUC(0-t) (200 mg, Treatment F: single 200 mg (SF2b), fasted, read-out: AUClast, Geo. Mean): 61.1 µg·h/mL
- AUC(0-t) (200 mg, Treatment F: single 200 mg (SF2b), fasted, read-out: AUClast, Mean): 64.8 µg·h/mL
- AUC(0-t) (200 mg, Treatment F: single 200 mg (SF2b), fasted, read-out: AUClast, Median): 59 µg·h/mL
- AUC(0-inf) (200 mg, Treatment F: single 200 mg (SF2b), fasted, read-out: AUC∞, Geo. Mean): 59.6 µg·h/mL
- AUC(0-inf) (200 mg, Treatment F: single 200 mg (SF2b), fasted, read-out: AUC∞, Mean): 62 µg·h/mL
- AUC(0-inf) (200 mg, Treatment F: single 200 mg (SF2b), fasted, read-out: AUC∞, Median): 58.5 µg·h/mL
- Cmax (200 mg, Treatment F: single 200 mg (SF2b), fasted, read-out: Cmax, Geo. Mean): 573 ng/mL
- Cmax (200 mg, Treatment F: single 200 mg (SF2b), fasted, read-out: Cmax, Mean): 602 ng/mL
- Cmax (200 mg, Treatment F: single 200 mg (SF2b), fasted, read-out: Cmax, Median): 580 ng/mL
- half-life (200 mg, Treatment F: single 200 mg (SF2b), fasted, read-out: t1/2, term, Geo. Mean (converted)): 188 h
- half-life (200 mg, Treatment F: single 200 mg (SF2b), fasted, read-out: t1/2, term, Mean (converted)): 205 h
- half-life (200 mg, Treatment F: single 200 mg (SF2b), fasted, read-out: t1/2, term, Median (converted)): 174 h
- Tmax (200 mg, Treatment F: single 200 mg (SF2b), fasted): 7.5 h
- AUC(0-t) (200 mg, Treatment G: single 200 mg (SF2b), fed, standardized breakfast, read-out: AUClast, Geo. Mean): 97.2 µg·h/mL
- AUC(0-t) (200 mg, Treatment G: single 200 mg (SF2b), fed, standardized breakfast, read-out: AUClast, Mean): 100 µg·h/mL
- AUC(0-t) (200 mg, Treatment G: single 200 mg (SF2b), fed, standardized breakfast, read-out: AUClast, Median): 89.5 µg·h/mL
- AUC(0-inf) (200 mg, Treatment G: single 200 mg (SF2b), fed, standardized breakfast, read-out: AUC∞, Geo. Mean): 102 µg·h/mL
- AUC(0-inf) (200 mg, Treatment G: single 200 mg (SF2b), fed, standardized breakfast, read-out: AUC∞, Mean): 106 µg·h/mL
- AUC(0-inf) (200 mg, Treatment G: single 200 mg (SF2b), fed, standardized breakfast, read-out: AUC∞, Median): 95.3 µg·h/mL
- Cmax (200 mg, Treatment G: single 200 mg (SF2b), fed, standardized breakfast, read-out: Cmax, Geo. Mean): 961 ng/mL
- Cmax (200 mg, Treatment G: single 200 mg (SF2b), fed, standardized breakfast, read-out: Cmax, Mean): 996 ng/mL
- Cmax (200 mg, Treatment G: single 200 mg (SF2b), fed, standardized breakfast, read-out: Cmax, Median): 892 ng/mL
- half-life (200 mg, Treatment G: single 200 mg (SF2b), fed, standardized breakfast, read-out: t1/2, term, Geo. Mean (converted)): 193 h
- half-life (200 mg, Treatment G: single 200 mg (SF2b), fed, standardized breakfast, read-out: t1/2, term, Mean (converted)): 198 h
- half-life (200 mg, Treatment G: single 200 mg (SF2b), fed, standardized breakfast, read-out: t1/2, term, Median (converted)): 208 h
- Tmax (200 mg, Treatment G: single 200 mg (SF2b), fed, standardized breakfast): 8 h
- AUC(0-t) (800 mg, 800 mg SF2b, fasted, linear mixed effects model (Table 5A), read-out: AUClast, Geometric Mean Treatment D): 140 µg·h/mL
- AUC(0-inf) (800 mg, 800 mg SF2b, fasted, linear mixed effects model (Table 5A), read-out: AUC∞, Geometric Mean Treatment D): 148 µg·h/mL
- Cmax (800 mg, 800 mg SF2b, fasted, linear mixed effects model (Table 5A), read-out: Cmax, Geometric Mean Treatment D): 1220 ng/mL
- AUC(0-t) (800 mg, 800 mg SF2b, fasted, read-out: AUClast, Geometric LS Means Treatment J): 107 µg·h/mL
- AUC(0-inf) (800 mg, 800 mg SF2b, fasted, read-out: AUC∞, Geometric LS Means Treatment J): 110 µg·h/mL
- Cmax (800 mg, 800 mg SF2b, fasted, read-out: Cmax, Geometric LS Means Treatment J): 991 ng/mL
- AUC(0-t) (800 mg, 800 mg SF2b, fed, high-fat, high-calorie breakfast, read-out: AUClast, Geometric LS Means Treatment K): 421 µg·h/mL
- AUC(0-inf) (800 mg, 800 mg SF2b, fed, high-fat, high-calorie breakfast, read-out: AUC∞, Geometric LS Means Treatment K): 422 µg·h/mL
